# According to patent US9765091B2, “Tetrahydropyrazolo [3,4-b] azepine derivatives and their use as allosteric modulators of metabotropic glutamate receptors” (Addex Pharma S.A., priority 2010, dated 2017):
# Test system: not given
# Assay: not given
# Conditions: not given
row,melting point [°C],Compound
1,292,"Cc1ccnc(Nc2nc3c(s2)CCN(C)c2n[nH]cc2-3)n1 [Compound 1-1, 6-Methyl-N-(4-methylpyrimidin-2-yl)-4,5,6,8-tetrahydropyrazolo[3,4-b]thiazolo[4,5-d]azepin-2-amine]"
2,247,"Cc1ccnc(Nc2nc3c(s2)CCN(C(C)C)c2n[nH]cc2-3)n1 [Compound 1-5, 6-Isopropyl-N-(4-methylpyrimidin-2-yl)-4,5,6,8-tetrahydropyrazolo[3,4-b]thiazolo[4,5-d]azepin-2-amine]"
3,291,"Cc1nc(Nc2nc3c(s2)CCN(C)c2n[nH]cc2-3)ns1 [Compound 1-8, 6-Methyl-N-(5-methyl-1,2,4-thiadiazol-3-yl)-4,5,6,8-tetrahydropyrazolo[3,4-b]thiazolo[4,5-d]azepin-2-amine]"

# Molecular target: T1, human mGluR4 (Homo sapiens, UniProt Q14833)
# T1 construct: expressed in transfected cells
# T1 sequence (Q14833 33-912): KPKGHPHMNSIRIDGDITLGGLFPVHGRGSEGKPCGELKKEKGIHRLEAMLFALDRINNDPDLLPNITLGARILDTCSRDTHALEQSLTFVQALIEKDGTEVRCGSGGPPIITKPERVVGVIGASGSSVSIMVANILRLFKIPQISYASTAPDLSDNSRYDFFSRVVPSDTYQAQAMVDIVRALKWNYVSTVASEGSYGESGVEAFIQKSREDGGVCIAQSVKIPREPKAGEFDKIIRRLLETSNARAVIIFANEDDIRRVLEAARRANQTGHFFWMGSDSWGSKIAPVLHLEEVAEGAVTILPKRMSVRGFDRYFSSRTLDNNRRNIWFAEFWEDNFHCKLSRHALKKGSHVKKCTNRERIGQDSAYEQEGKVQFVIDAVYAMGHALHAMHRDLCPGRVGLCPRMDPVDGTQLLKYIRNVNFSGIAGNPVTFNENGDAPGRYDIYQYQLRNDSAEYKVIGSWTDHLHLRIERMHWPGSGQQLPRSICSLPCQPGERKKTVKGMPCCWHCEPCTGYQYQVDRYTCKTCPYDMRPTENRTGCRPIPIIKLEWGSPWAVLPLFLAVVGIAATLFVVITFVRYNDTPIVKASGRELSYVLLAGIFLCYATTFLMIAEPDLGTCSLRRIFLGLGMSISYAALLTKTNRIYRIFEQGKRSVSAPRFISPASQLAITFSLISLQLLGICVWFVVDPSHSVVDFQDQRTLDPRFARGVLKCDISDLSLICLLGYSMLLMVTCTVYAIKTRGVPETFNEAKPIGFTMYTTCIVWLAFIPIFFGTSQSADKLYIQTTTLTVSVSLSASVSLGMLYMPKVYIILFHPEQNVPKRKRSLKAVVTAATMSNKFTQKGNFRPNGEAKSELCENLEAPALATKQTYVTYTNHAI
# Assay: Fluorescent cell based Ca2+ mobilization assay (FLIPR) on HEK-293 cells expressing human mGluR4
# Conditions: positive allosteric modulation, HEK-293 cells expressing hmGluR4, stimulated by EC25 glutamate; mean of at least three independent experiments in duplicate; read-out: Ca^2+ Flux* (mean EC50)
# Source text: mGluR4 Assay on HEK-Expressing Human mGluR4
# The compounds of the present invention are positive allosteric modulators of mGluR4 receptor. Their activity was examined on recombinant human mGluR4a receptors by detecting changes in intracellular Ca^2+ concentration, using the fluorescent Ca^2+-sensitive dye Fluo4-(AM) and a Fluorometric Imaging Plate Reader (FLIPR, Molecular Devices, Sunnyvale, Calif.).
# The cDNA encoding the human metabotropic glutamate receptor (hmGluR4), (accession number NM_000841.1, NCBI Nucleotide database browser), was subcloned into an expression vector containing also the hygromycin resistance gene. In parallel, the cDNA encoding a G protein allowing redirection of the activation signal to intracellular calcium flux was subcloned into a different expression vector containing also the puromycin resistance gene. Transfection of both these vectors into HEK293 cells with PolyFect reagent (Qiagen) according to supplier's protocol, and hygromycin and puromycin treatment allowed selection of antibiotic resistant cells which had integrated stably one or more copies of the plasmids. Positive cellular clones expressing hmGluR4 were identified in a functional assay measuring changes in calcium fluxes in response to glutamate or selective known mGluR4 orthosteric agonists and antagonists. HEK-293 cells expressing hmGluR4 were maintained in media containing DMEM, dialyzed Fetal Calf Serum (10%), Glutamax™ (2 mM), Penicillin (100 units/mL), Streptomycin (100 μg/mL), Geneticin (100 μg/mL) and Hygromycin-B (40 μg/mL) and puromycin (1 μg/mL) at 37° C./5% CO2.
# Human mGluR4 HEK-293 cells were plated out 24 hours prior to FLIPR^384 assay in black-walled, clear-bottomed, poly-L-ornithine-coated 384-well plates at a density of 25,000 cells/well in a glutamine/glutamate free DMEM medium containing foetal bovine serum (10%), penicillin (100 units/mL) and streptomycin (100 μg/mL) at 37° C./5% CO2.
# On the day of the assay, the medium was aspirated and the cells were loaded with a 3 μM solution of Fluo4-AM (LuBioScience, Lucerne, Switzerland) in 0.03% pluronic acid. After 1 hour at 37° C./5% CO2, the non incorporated dye was removed by washing cell plate with the assay buffer and the cells were left in the dark at room temperature for […] before testing. All assays were performed in a pH 7.4 buffered-solution containing 20 mM HEPES, 143 mM NaCl, 6 mM KCl, 1 mM MgSO4, 1 mM CaCl2, 0.125 mM sulfapyrazone and 0.1% glucose.
# After 10 s of basal fluorescence recording, various concentrations of the compounds of the invention were added to the cells. Changes in fluorescence levels were first monitored for 180 s in order to detect any agonist activity of the compounds. Then the cells were stimulated by an EC25 glutamate concentration for an additional 110 s in order to measure enhancing activities of the compounds of the invention. EC25 glutamate concentration is the concentration giving 25% of the maximal glutamate response.
# The concentration-response curves of representative compounds of the present invention were generated using the Prism GraphPad software (Graph Pad Inc, San Diego, USA). The curves were fitted to a four-parameter logistic equation: (Y=Bottom+(Top−Bottom)/(1+10^((Log EC50−X)*Hill Slope) allowing the determination of EC50 values.
# The Table 4 below represents the mean EC50 obtained from at least three independent experiments of selected molecules performed in duplicate.
row,EC50 [nM],Compound
1,< 100,"Cc1ccnc(Nc2nc3c(s2)CCN(C)c2n[nH]cc2-3)n1 [Compound 1-1, 6-Methyl-N-(4-methylpyrimidin-2-yl)-4,5,6,8-tetrahydropyrazolo[3,4-b]thiazolo[4,5-d]azepin-2-amine]"
2,< 100,"Cc1ccnc(Nc2nc3c(s2)CCN(C(C)C)c2n[nH]cc2-3)n1 [Compound 1-5, 6-Isopropyl-N-(4-methylpyrimidin-2-yl)-4,5,6,8-tetrahydropyrazolo[3,4-b]thiazolo[4,5-d]azepin-2-amine]"
3,< 100,"Cc1nc(Nc2nc3c(s2)CCN(C)c2n[nH]cc2-3)ns1 [Compound 1-8, 6-Methyl-N-(5-methyl-1,2,4-thiadiazol-3-yl)-4,5,6,8-tetrahydropyrazolo[3,4-b]thiazolo[4,5-d]azepin-2-amine]"
4,1000 to 10000,"Fc1cnc(Nc2nc3c(s2)CCN(Cc2[nH]ncc2Br)c2n[nH]cc2-3)nc1 [Compound 1-57, 6-((4-Bromo-1H-pyrazol-5-yl)methyl)-N-(5-fluoropyrimidin-2-yl)-4,5,6,8-tetrahydropyrazolo[3,4-b]thiazolo[4,5-d]azepin-2-amine]"
5,100 to 1000,"Fc1cnc(Nc2nc3c(s2)CCN(Cc2ccc(Cl)cc2)c2[nH]ncc2-3)nc1 [Compound 1-58, 6-(4-Chlorobenzyl)-N-(5-fluoropyrimidin-2-yl)-4,5,6,7-tetrahydropyrazolo[3,4-b]thiazolo[4,5-d]azepin-2-amine]"
6,1000 to 10000,"Cc1ccccc1CN1CCc2sc(Nc3ncc(F)cn3)nc2-c2cn[nH]c21 [Compound 1-59, N-(5-Fluoropyrimidin-2-yl)-6-(2-methylbenzyl)-4,5,6,7-tetrahydropyrazolo[3,4-b]thiazolo[4,5-d]azepin-2-amine]"
7,100 to 1000,"COc1cccc(CN2CCc3sc(Nc4ncc(F)cn4)nc3-c3cn[nH]c32)c1 [Compound 1-60, N-(5-Fluoropyrimidin-2-yl)-6-(3-methoxybenzyl)-4,5,6,7-tetrahydropyrazolo[3,4-b]thiazolo[4,5-d]azepin-2-amine]"
8,< 100,"Fc1ccc(CN2CCc3sc(Nc4ncc(F)cn4)nc3-c3cn[nH]c32)nc1 [Compound 1-61, 6-((5-Fluoropyridin-2-yl)methyl)-N-(5-fluoropyrimidin-2-yl)-4,5,6,7-tetrahydropyrazolo[3,4-b]thiazolo[4,5-d]azepin-2-amine]"
9,< 100,"Fc1cnc(Nc2nc3c(s2)CCN(Cc2ccc(C(F)(F)F)cn2)c2[nH]ncc2-3)nc1 [Compound 1-62, N-(5-Fluoropyrimidin-2-yl)-6-((5-(trifluoromethyl)pyridin-2-yl)methyl)-4,5,6,7-tetrahydropyrazolo[3,4-b]thiazolo[4,5-d]azepin-2-amine]"
10,< 100,Cc1ccnc(CN2CCc3nc(Nc4ncc(F)cn4)sc3-c3cn[nH]c32)c1 [Compound 1-63]
11,100 to 1000,"Fc1cnc(Nc2nc3c(s2)CCN(Cc2ncccc2Cl)c2[nH]ncc2-3)nc1 [Compound 1-64, 6-((3-Chloropyridin-2-yl)methyl)-N-(5-fluoropyrimidin-2-yl)-4,5,6,7-tetrahydropyrazolo[3,4-b]thiazolo[4,5-d]azepin-2-amine]"
12,100 to 1000,"Fc1cnc(Nc2nc3c(s2)CCN(CCc2ccccc2)c2[nH]ncc2-3)nc1 [Compound 1-65, N-(5-Fluoropyrimidin-2-yl)-6-phenethyl-4,5,6,7-tetrahydropyrazolo[3,4-b]thiazolo[4,5-d]azepin-2-amine]"
13,100 to 1000,"COCCN1CCc2sc(Nc3nc(C)ccc3F)nc2-c2cn[nH]c21 [Compound 1-66, N-(3-Fluoro-6-methylpyridin-2-yl)-6-(2-methoxyethyl)-4,5,6,7-tetrahydropyrazolo[3,4-b]thiazolo[4,5-d]azepin-2-amine]"
14,100 to 1000,"Fc1cnc(Nc2nc3c(s2)CCN(Cc2cccc(Cl)c2)c2[nH]ncc2-3)nc1 [Compound 1-67, 6-(3-Chlorobenzyl)-N-(5-fluoropyrimidin-2-yl)-4,5,6,7-tetrahydropyrazolo[3,4-b]thiazolo[4,5-d]azepin-2-amine]"
15,< 100,"N#Cc1ccc(CN2CCc3sc(Nc4ncc(F)cn4)nc3-c3cn[nH]c32)cc1 [Compound 1-68, 4-((2-(5-Fluoropyrimidin-2-ylamino)-4,5-dihydropyrazolo[3,4-b]thiazolo[4,5-d]azepin-6(7H)-yl)methyl)benzonitrile]"
16,100 to 1000,"Fc1cnc(Nc2nc3c(s2)CCN(Cc2ccc(C(F)(F)F)cc2)c2[nH]ncc2-3)nc1 [Compound 1-69, N-(5-Fluoropyrimidin-2-yl)-6-(4-(trifluoromethyl)benzyl)-4,5,6,7-tetrahydropyrazolo[3,4-b]thiazolo[4,5-d]azepin-2-amine]"
17,100 to 1000,"Cc1cccc(CN2CCc3sc(Nc4ncc(F)cn4)nc3-c3cn[nH]c32)n1 [Compound 1-70, N-(5-Fluoropyrimidin-2-yl)-6-((6-methylpyridin-2-yl)methyl)-4,5,6,7-tetrahydropyrazolo[3,4-b]thiazolo[4,5-d]azepin-2-amine]"
18,1000 to 10000,"Fc1cnc(Nc2nc3c(s2)CCN(CCc2ccccn2)c2[nH]ncc2-3)nc1 [Compound 1-71, N-(5-Fluoropyrimidin-2-yl)-6-(2-(pyridin-2-yl)ethyl)-4,5,6,7-tetrahydropyrazolo[3,4-b]thiazolo[4,5-d]azepin-2-amine]"
19,< 100,"COc1ccc(CN2CCc3sc(Nc4ncc(F)cn4)nc3-c3cn[nH]c32)nc1 [Compound 1-77, N-(5-Fluoropyrimidin-2-yl)-6-((5-methoxypyridin-2-yl)methyl)-4,5,6,7-tetrahydropyrazolo[3,4-b]thiazolo[4,5-d]azepin-2-amine]"
20,1000 to 10000,"Fc1cnc(Nc2nc3c(s2)CCN(CC2CCNCC2)c2[nH]ncc2-3)nc1 [Compound 1-78, N-(5-Fluoropyrimidin-2-yl)-6-(piperidin-4-ylmethyl)-4,5,6,7-tetrahydropyrazolo[3,4-b]thiazolo[4,5-d]azepin-2-amine]"
21,100 to 1000,"Fc1cnc(Nc2nc3c(s2)CCN(Cc2ncc(Cl)s2)c2[nH]ncc2-3)nc1 [Compound 1-79, 6-((5-Chlorothiazol-2-yl)methyl)-N-(5-fluoropyrimidin-2-yl)-4,5,6,7-tetrahydropyrazolo[3,4-b]thiazolo[4,5-d]azepin-2-amine]"
22,100 to 1000,"Cn1cnc(CN2CCc3sc(Nc4ncc(F)cn4)nc3-c3cn[nH]c32)c1 [Compound 1-80, N-(5-Fluoropyrimidin-2-yl)-6-((1-methyl-1H-imidazol-4-yl)methyl)-4,5,6,7-tetrahydropyrazolo[3,4-b]thiazolo[4,5-d]azepin-2-amine]"
23,< 100,"CC(c1ccc(Cl)cn1)N1CCc2sc(Nc3ncc(F)cn3)nc2-c2cn[nH]c21 (centres unmarked) [Compound 1-81, 6-(1-(5-Chloropyridin-2-yl)ethyl)-N-(5-fluoropyrimidin-2-yl)-4,5,6,7-tetrahydropyrazolo[3,4-b]thiazolo[4,5-d]azepin-2-amine]"
24,1000 to 10000,"Fc1cnc(Nc2nc3c(s2)CCN(C2CCC2)c2[nH]ncc2-3)nc1 [Compound 1-82, 6-Cyclobutyl-N-(5-fluoropyrimidin-2-yl)-4,5,6,7-tetrahydropyrazolo[3,4-b]thiazolo[4,5-d]azepin-2-amine]"
25,100 to 1000,"COCCN1CCc2sc(Nc3cccc(CF)n3)nc2-c2cn[nH]c21 [Compound 1-83, N-(6-(Fluoromethyl)pyridin-2-yl)-6-(2-methoxyethyl)-4,5,6,7-tetrahydropyrazolo[3,4-b]thiazolo[4,5-d]azepin-2-amine]"
26,100 to 1000,"COCCN1CC(C)c2sc(Nc3ncc(F)cn3)nc2-c2cn[nH]c21 (centres unmarked) [Compound 1-84, N-(5-Fluoropyrimidin-2-yl)-6-(2-methoxyethyl)-4-methyl-4,5,6,7-tetrahydropyrazolo[3,4-b]thiazolo[4,5-d]azepin-2-amine]"
